In one test the target is Steroidogenic factor 1 (Homo sapiens, UniProt Q13285). As to the kind of experiment: SF-1 driven luciferase reporter response, dose response, counter-screen for RORA activator project, CHO-K1 cells (AID 695).
Steroidogenic factor 1, sequence (Q13285 whole entry): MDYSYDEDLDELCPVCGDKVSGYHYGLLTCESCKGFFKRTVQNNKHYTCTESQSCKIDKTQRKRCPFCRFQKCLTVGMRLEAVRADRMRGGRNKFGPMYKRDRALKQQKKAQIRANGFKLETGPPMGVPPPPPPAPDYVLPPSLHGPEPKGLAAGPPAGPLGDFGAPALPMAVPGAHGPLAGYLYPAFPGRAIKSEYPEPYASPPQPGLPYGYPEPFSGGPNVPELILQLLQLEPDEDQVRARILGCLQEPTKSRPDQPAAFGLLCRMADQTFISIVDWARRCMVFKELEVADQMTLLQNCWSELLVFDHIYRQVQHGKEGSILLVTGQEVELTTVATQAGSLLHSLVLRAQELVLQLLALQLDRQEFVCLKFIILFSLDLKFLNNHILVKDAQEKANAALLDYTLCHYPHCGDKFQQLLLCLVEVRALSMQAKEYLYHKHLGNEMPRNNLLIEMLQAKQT
Conditions: not given
(In general: In a reporter assay the amount or activity of a reporter protein is the signal.)
Turning to `O=C1N(CCCN2C(=O)C3(OCCO3)c3ccccc32)c2ccccc2C12OCCO2` [1'-[3-(2'-ketospiro[1,3-dioxolane-2,3'-indoline]-1'-yl)propyl]spiro[1,3-dioxolane-2,3'-indoline]-2'-one], the concentration for a half-maximal effect (EC50) (usually the concentration that produces a half-maximal response) was greater than 99000 nM.

For the compound `COc1cc(C)c(C(C)C)cc1S(=O)(=O)n1cnc(C)c1` [1-(2-methoxy-4-methyl-5-propan-2-yl-phenyl)sulfonyl-4-methyl-imidazole], the EC50 is 1320 nM.

The compound `CN1CCN(S(=O)(=O)c2ccc(Br)s2)CC1` [1-(5-bromanylthiophen-2-yl)sulfonyl-4-methyl-piperazine] came in with an EC50 greater than 99000 nM.

`Clc1ccccc1OCCn1cnc2ccccc21` [1-[2-(2-chloranylphenoxy)ethyl]benzimidazole] had an EC50 of 3670 nM. This lies in the single-digit micromolar range.

Compound `O=C(c1ccc(-c2nnc(-c3ccccc3)o2)cc1)N1CCCCCC1` [1-azepanyl-[4-(5-phenyl-1,3,4-oxadiazol-2-yl)phenyl]methanone] gave an EC50 of 252 nM.

`Cn1c(SCc2ccccc2F)nc2cccnc21` [2-(2-Fluoro-benzylsulfanyl)-3-methyl-3H-imidazo[4,5-b]pyridine] showed an EC50 greater than 1220 nM.

Consider `Clc1ccc(-c2nnc(-c3ccccc3Cl)o2)cc1` [2-(2-chlorophenyl)-5-(4-chlorophenyl)-1,3,4-oxadiazole], for which the EC50 was 233 nM.

Turning to `COc1ccc(Nc2oc(-c3ccccc3Cl)nc2C#N)cc1` [2-(2-chlorophenyl)-5-(4-methoxyanilino)-1,3-oxazole-4-carbonitrile], a half-maximal effect (EC50) was put at 2740 nM.

As to `CCCCOC(=O)C(C)Oc1ccc(=O)n(-c2ccccc2)n1` (stereo not given) [2-(6-keto-1-phenyl-pyridazin-3-yl)oxypropionic acid butyl ester], the EC50 was greater than 99000 nM.

Regarding `CCOC(=O)c1ccccc1NC(=O)CSc1nnnn1C1CCCCC1` [2-[2-(1-Cyclohexyl-1H-tetrazol-5-ylsulfanyl)-acetylamino]-benzoic acid ethyl ester], the EC50 was greater than 99000 nM.

As for `Cc1cc(NCCOCCO)n2ncc(-c3ccc(Cl)cc3)c2n1` [2-[2-[[3-(4-chlorophenyl)-5-methyl-7-pyrazolo[1,5-a]pyrimidinyl]amino]ethoxy]ethanol], the EC50 turned out to be 485 nM.

Compound `CCCCOc1ccc(-c2nnn(CC(=O)NCc3ccco3)n2)cc1` [2-[5-(4-Butoxy-phenyl)-tetrazol-2-yl]-N-furan-2-ylmethyl-acetamide] displayed an EC50 of 1880 nM. This EC50 is about 3.9-fold higher than that of the compound before.

As for `Nc1c(C(=O)NCCN2CCOCC2)c2nc3ccccc3nc2n1-c1ccc2c(c1)OCO2` [2-amino-1-(1,3-benzodioxol-5-yl)-N-(2-morpholin-4-ylethyl)pyrrolo[3,2-b]quinoxaline-3-carboxamide], the EC50 was greater than 11000 nM.

Take `COCCOC(=O)c1[nH]c2c(c1C)C(=O)CC(c1cc(OC)ccc1OC)C2` (stereo not given) [2-methoxyethyl 6-(2,5-dimethoxyphenyl)-3-methyl-4-oxo-1,5,6,7-tetrahydroindole-2-carboxylate]: the EC50 amounted to 7670 nM. That is a single-digit micromolar value.

Compound `Cc1cc(N)c(NC2=CC(=O)CC(C)(C)C2)cc1C` [3-(2-amino-4,5-dimethyl-anilino)-5,5-dimethyl-cyclohex-2-en-1-one] returned an EC50 greater than 11000 nM.

For `CC(=O)C(C)Oc1ccc2c3c(c(=O)oc2c1C)CCCC3` (stereo not given) [3-(2-keto-1-methyl-propoxy)-4-methyl-7,8,9,10-tetrahydrobenzo[c]chromen-6-one], the EC50 is 807 nM.

For the compound `COc1cccc(-c2noc(-c3cccs3)n2)c1` [3-(3-methoxyphenyl)-5-(2-thienyl)-1,2,4-oxadiazole], the concentration giving a half-maximal response (EC50) was 226 nM.

`COc1cccc(-c2noc(-c3cccnc3)n2)c1` [3-(3-methoxyphenyl)-5-(3-pyridinyl)-1,2,4-oxadiazole] showed an EC50 of 1740 nM.

Still in this test, the particulars now being: inactive by the depositor's call.
Take `O=c1c2ccccc2nc2ccc(NCc3ccco3)nn12` [2-(2-furanylmethylamino)-10-pyridazino[6,1-b]quinazolinone]: the EC50 is 27300 nM. This counts as double-digit micromolar.

For the compound `O=C(c1ccco1)N1CCN(c2ncnc3c(-c4ccccc4)nsc23)CC1` [2-furanyl-[4-(3-phenyl-7-isothiazolo[4,5-d]pyrimidinyl)-1-piperazinyl]methanone], the midpoint of the response, the EC50, lay at 21000 nM.
